Structures can show the parent of a compound that is named as a salt. Where two headings read alike, the source gives them in different places.
Assays:
[1] = tested on: HeLa S-3 human cervical carcinoma cell line; assay: HeLa GI50 determination (SRB); format: cell-based; details: Homo sapiens, HeLa S3, 48 h, read-out: HeLa Cells GI50
Description: Growth inhibition (GI50) values were measured on the human cervical carcinoma cell line, HeLa S-3, which were selected for growth on plastic. The HeLa cell assay was based on the description of Skehan et al., J. Natl. Cancer Inst., 82:1107-12 (1990), which is hereby incorporated by reference in its entirety. HeLa cells were plated at 2×10^4 cells/well in 96 well plates. One day later, a control plate was fixed by the addition of TCA to 5%. After five rinses with tap water, the plate was air-dried and stored at 4° C. Test compounds were added to the remaining plates at 10-fold dilutions. Two days later, all plates were fixed as described above. Cells were then stained by the addition of 100 μL per well of 0.4% sulforhodamine B (SRB) in 1% acetic acid for 30 min at 4° C. Wells were then quickly rinsed 5× with 1% acetic acid and allowed to air dry. The SRB was then solubilized by the addition of 100 μL per well of unbuffered 10 mM Tris base. Dye was quantified by measuring absorbance at 490 nm on a Molecular Devices microplate reader. Growth inhibition was calculated according to the following equation: GI=100×(T−T0)/(C−T0), where the optical density (OD) of the test well after 2 days of treatment was T, the OD of the wells in the control plate on day 0 was T0 and C was the OD of untreated wells. Plots of percent growth inhibition versus inhibitor concentration were used to determine the GI50.

[2] = tested on: MCF-7 human breast carcinoma line; assay: MCF-7 GI50 determination (crystal violet); format: cell-based; details: Homo sapiens, MCF7, 96 h, read-out: MCF-7 Cells GI50
Description: Growth inhibition (GI50) values were measured on the human breast carcinoma line, MCF-7. MCF-7 cells were plated at 2×10^4 cells/well in 96 well plates and grown for 24 hours in drug free media. On day 2, test compounds were added to the plates at 10-fold dilutions. Four days later, cells were fixed by the addition of glutaraldehyde to 0.75%. After 30 min, the fixed cells were extensively rinsed with distilled water and dried at room temperature for one hour. The cells were then stained with a 0.2% crystal violet solution for one hour at room temperature. Unbound stain was removed by ten rinses with tap water and plates were allowed to air dry for 30 min. The crystal violet was then solubilized by the addition of 10% acetic acid for 15 min and quantified by measuring absorbance at 570 nm on a Molecular Devices microplate reader. Growth inhibition was calculated according to the following equation: GI=[…], where the optical density (OD) of the test well after 4 days of treatment was T, the OD of the wells in the control plate on day 0 was T0. Plots of percent growth inhibition versus inhibitor concentration were used to determine the GI50.

[3] = HeLa S-3, 2 days of treatment, SRB
[4] = MCF-7, 4 days of treatment, crystal violet

Compound | melting point | GI50 [1, 3] [nM] | GI50 [2, 4] [nM] | GI50 [1] [nM] | GI50 [2] [nM]
CCC1=C[C@H]2CN(C1)Cc1c([nH]c3ccc(SCCC(=O)OC)cc13)[C@@](C(=O)OC)(c1cc3c(cc1OC)N(C)[C@H]1[C@@](O)(C(=O)OC)[C@H](OC(C)=O)C4C(CC)=CCN5CC[C@]31[C@H]45)C2 (stereo partly drawn) (as salt: tartrate) [Example 7, 11′-(methoxycarbonylethylsulfanyl) vinorelbine] | 140 to 170 °C (dec.) |  |  |  | 
CCC1=C[C@H]2CN(C1)Cc1c([nH]c3ccc(-c4cccc(O)c4)cc13)[C@@](C(=O)OC)(c1cc3c(cc1OC)N(C)[C@H]1[C@@](O)(C(=O)OC)[C@H](OC(C)=O)C4C(CC)=CCN5CC[C@]31[C@H]45)C2 (stereo partly drawn) [Example 31, 11′-(3-hydroxyphenyl) vinorelbine] |  | 300 | 600 |  | 
CCC1=C[C@H]2CN(C1)Cc1c([nH]c3ccc(C(C)=O)cc13)[C@@](C(=O)OC)(c1cc3c(cc1OC)N(C)[C@H]1[C@@](O)(C(=O)OC)[C@H](OC(C)=O)C4C(CC)=CCN5CC[C@]31[C@H]45)C2 (stereo partly drawn) [Example 26, 11′-acetylvinorelbine] |  | 4 | 20 |  | 
CCC1=C[C@H]2CN(C1)Cc1c([nH]c3ccc(C(=O)OCC(Cl)(Cl)Cl)cc13)[C@@](C(=O)OC)(c1cc3c(cc1OC)N(C)[C@H]1[C@@](O)(C(=O)OC)[C@H](OC(C)=O)C4C(CC)=CCN5CC[C@]31[C@H]45)C2 (stereo partly drawn) [Example 28, 11′-(2,2,2-trichloroethoxycarbonyl) vinorelbine] |  |  |  | 300 | > 1000
CCC1=C[C@H]2CN(C1)Cc1c([nH]c3ccc(SCc4ccccc4Cl)cc13)[C@@](C(=O)OC)(c1cc3c(cc1OC)N(C)[C@H]1[C@@](O)(C(=O)OC)[C@H](OC(C)=O)C4C(CC)=CCN5CC[C@]31[C@H]45)C2 (stereo partly drawn) [Example 16, 11′-(2-chlorobenzylsulfanyl)vinorelbine] |  | 300 | 500 |  | 
CCC1=C[C@H]2CN(C1)Cc1c([nH]c3ccc(N)cc13)[C@@](C(=O)OC)(c1cc3c(cc1OC)N(C)[C@H]1[C@@](O)(C(=O)OC)[C@H](OC(C)=O)C4C(CC)=CCN5CC[C@]31[C@H]45)C2 (stereo partly drawn) [Example 35, 11′-aminovinorelbine] |  | 300 | 600 |  | 
CCC1=C[C@H]2CN(C1)Cc1c([nH]c3ccc(S)cc13)[C@@](C(=O)OC)(c1cc3c(cc1OC)N(C)[C@H]1[C@@](O)(C(=O)OC)[C@H](OC(C)=O)C4C(CC)=CCN5CC[C@]31[C@H]45)C2 (stereo partly drawn) [Example 8, 11′-thiovinorelbine] |  | 40 | 60 |  | 
CCCC(=O)/C=C/c1ccc2[nH]c3c(c2c1)CN1CC(CC)=C[C@@H](C1)C[C@]3(C(=O)OC)c1cc2c(cc1OC)N(C)[C@H]1[C@@](O)(C(=O)OC)[C@H](OC(C)=O)C3C(CC)=CCN4CC[C@]21[C@H]34 (stereo partly drawn) [Example 4, 11′-(3-oxohex-1-enyl) vinorelbine] |  | 400 | 300 |  | 
CCC1=C[C@H]2CN(C1)Cc1c([nH]c3ccc(Sc4ccccc4)cc13)[C@@](C(=O)OC)(c1cc3c(cc1OC)N(C)[C@H]1[C@@](O)(C(=O)OC)[C@H](OC(C)=O)C4C(CC)=CCN5CC[C@]31[C@H]45)C2 (stereo partly drawn) [Example 17, 11′-(phenysulfanyl) vinorelbine] |  | 20 | 300 |  | 
CCCCC#Cc1ccc2[nH]c3c(c2c1)CN1CC(CC)=C[C@@H](C1)C[C@]3(C(=O)OC)c1cc2c(cc1OC)N(C)[C@H]1[C@@](O)(C(=O)OC)[C@H](OC(C)=O)C3C(CC)=CCN4CC[C@]21[C@H]34 (stereo partly drawn) [Example 22, 11′-hexynylvinorelbine] |  | 40 | 50 |  | 
CCC1=C[C@H]2CN(C1)Cc1c([nH]c3ccc(SCc4ccccc4F)cc13)[C@@](C(=O)OC)(c1cc3c(cc1OC)N(C)[C@H]1[C@@](O)(C(=O)OC)[C@H](OC(C)=O)C4C(CC)=CCN5CC[C@]31[C@H]45)C2 (stereo partly drawn) [Example 15, 11′-(2-fluorobenzylsulfanyl)vinorelbine] |  | 200 | 400 |  | 
C#Cc1ccc2[nH]c3c(c2c1)CN1CC(CC)=C[C@@H](C1)C[C@]3(C(=O)OC)c1cc2c(cc1OC)N(C)[C@H]1[C@@](O)(C(=O)OC)[C@H](OC(C)=O)C3C(CC)=CCN4CC[C@]21[C@H]34 (stereo partly drawn) [Example 21, 11′-ethynylvinorelbine] |  | 0.4 | 5 |  | 
CCC1=C[C@H]2CN(C1)Cc1c([nH]c3ccc(Sc4cccc(O)c4)cc13)[C@@](C(=O)OC)(c1cc3c(cc1OC)N(C)[C@H]1[C@@](O)(C(=O)OC)[C@H](OC(C)=O)C4C(CC)=CCN5CC[C@]31[C@H]45)C2 (stereo partly drawn) [Example 18, 11′-(3-hydroxyphenysulfanyl)vinorelbine] |  | 30 | 300 |  | 
CCC1=C[C@H]2CN(C1)Cc1c([nH]c3ccc(C#CCC(C)C)cc13)[C@@](C(=O)OC)(c1cc3c(cc1OC)N(C)[C@H]1[C@@](O)(C(=O)OC)[C@H](OC(C)=O)C4C(CC)=CCN5CC[C@]31[C@H]45)C2 (stereo partly drawn) [Example 23, 11′-(4-methylpentynyl) vinorelbine] |  | 300 | 300 |  | 
